Experimental findings from ChEMBL document CHEMBL3832037, “DailyMed|setid=7FCE939E-C38E-497F-BA3F-E7B6BA44BFD9 | SIMVASTATIN - simvastatin tablet, film coated|Contract Pharmacy Services-PA” are described below.

Each structure is given as a SMILES string. “And” between values parts separate entries of the source, which are not always exact repeats. Equal entries are not always repeated.

For data set [1], the system named is Homo sapiens. In words: Effect of the co-administered drugs on the AUC and Cmax of simvastatin and simvastatin acid. The geometric mean AUC and Cmax ratio (Ratio: with/without co-administered drug) for simvastatin and simvastatin acid following multpile dose co-administration of simvastatin with different drugs. It is filed as ADME, organism-based. Conditions: in vivo, po, dose 20 mg, dosed compound id 2, dosed compound name SIMVASTATIN, regimen Every 24h, tissue Plasma.

Data set [2] relates to Homo sapiens. Kind of data set: Effect of co-administered drugs on the AUC and Cmax for Simvastatin, and its active metabolite Simvastatin acid. The geometric mean AUC and Cmax ratio (Ratio: with/without co-administered drug) for Simvastatin acid following single dose co-administration of Simvastatin with different drugs. It is filed as ADME, organism-based. To be noted: in vivo, po, dosed compound id 2, dosed compound name SIMVASTATIN, regimen Single dose, tissue Plasma.

The mark [3] stands for this setting: dose 20 mg, interact cpd dose 2 g.
Setting [4] is: dose 20 mg, interact cpd dose 237 mL, inter cpd dosed level low, inter cpd dos duration 3 days.
Where [5] appears, read: dose 40 mg, interact cpd dose 600 mg, inter cpd dos duration 3 days.
The mark [6] stands for this setting: dose 60 mg, interact cpd dose 200 mL, inter cpd dosed level high, inter cpd dos duration 2 days.
Setting [7] is: dose 80 mg, interact cpd dose 10 mg, inter cpd dos duration 10 days.
Where [8] appears, read: dose 80 mg, interact cpd dose 120 mg, inter cpd dos duration 10 days.
Where [9] appears, read: dose 80 mg, interact cpd dose 160 mg, inter cpd dos duration 14 days, study dosing duration 7 days.
Where [10] appears, read: dose 80 mg, interact cpd dose 200 mg, inter cpd dos duration 4 days.
[11] abbreviates: dose 80 mg, interact cpd dose 240 mg, inter cpd dos duration 3 days.

On to `CCC(C)(C)C(=O)O[C@H]1C[C@@H](C)C=C2C=C[C@H](C)[C@H](CC[C@@H]3C[C@@H](O)CC(=O)O3)[C@H]21` [SIMVASTATIN], for which the “Ratio Cmax” value in data set [1] (interact cpd dose 200 mg, inter cpd dos duration 4 days) was determined as 6.2; in data set [2] (setting [3]), 1.08; in data set [2] (setting [5]) it was 0.91; in data set [2] (setting [7]), 1.47; in data set [2] (setting [8]), 2.88; in data set [2] (setting [9]), 0.83. Besides, the “Ratio Cmax” value in data set [2] (setting [10]) is 5.3 and 13.1; in data set [2] (setting [11]) it was 2.1. For the same compound, the “Ratio AUC” value in data set [1] (interact cpd dose 1250 mg, inter cpd dos duration 14 days, study dosing duration 28 days) turned out to be 6; in data set [2] (setting [3]), 1.4; in data set [2] (setting [4]) it was 1.9; in data set [2] (setting [5]), 1.35; in data set [2] (setting [6]), 16; in data set [2] (setting [7]) it was 1.77. Also, the “Ratio AUC” value is listed as 3.1 in data set [2] (setting [8]); 0.89 in data set [2] (setting [9]); 8.9 in data set [2] (setting [10]); 2.5 in data set [2] (dose 80 mg, interact cpd dose 240 mg, inter cpd dos duration 7 days).
For the compound `CCC(C)(C)C(=O)O[C@H]1C[C@@H](C)C=C2C=C[C@H](C)[C@H](CC[C@@H](O)C[C@@H](O)CC(=O)O)[C@H]21` [TENIVASTATIN], the “Ratio AUC” value in data set [2] (setting [3]) was found to be 1.6; in data set [2] (setting [4]), 1.3; in data set [2] (setting [5]), 2.85; in data set [2] (setting [7]) it was 1.58; in data set [2] (setting [8]), 2.69; in data set [2] (setting [9]), 0.64. Besides, the “Ratio AUC” value is given as 12 in data set [2] (setting [10]) and 2.3 in data set [2] (setting [11]). In addition, the “Ratio Cmax” value in data set [2] (setting [3]) was found to be 1.84; in data set [2] (setting [5]) it was 2.18; in data set [2] (setting [6]), 7; in data set [2] (setting [7]) it was 1.56; in data set [2] (setting [8]) it was 2.69; in data set [2] (setting [9]) it was 0.89. The “Ratio Cmax” value is 15 and 13.1 in data set [2] (setting [10]); 2.4 in data set [2] (setting [11]).
